Each block holds one compound with its values, some of them ahead of it.
How the values were obtained:
androgen receptor [1] = biological target: T1, androgen receptor (Homo sapiens, UniProt P10275); assay: Degradation of androgen receptor through autophagy; assay type: cell-based; conditions: FIG. 2a to 2c
T1 construct: endogenous in cells
T1 sequence (P10275 1-920): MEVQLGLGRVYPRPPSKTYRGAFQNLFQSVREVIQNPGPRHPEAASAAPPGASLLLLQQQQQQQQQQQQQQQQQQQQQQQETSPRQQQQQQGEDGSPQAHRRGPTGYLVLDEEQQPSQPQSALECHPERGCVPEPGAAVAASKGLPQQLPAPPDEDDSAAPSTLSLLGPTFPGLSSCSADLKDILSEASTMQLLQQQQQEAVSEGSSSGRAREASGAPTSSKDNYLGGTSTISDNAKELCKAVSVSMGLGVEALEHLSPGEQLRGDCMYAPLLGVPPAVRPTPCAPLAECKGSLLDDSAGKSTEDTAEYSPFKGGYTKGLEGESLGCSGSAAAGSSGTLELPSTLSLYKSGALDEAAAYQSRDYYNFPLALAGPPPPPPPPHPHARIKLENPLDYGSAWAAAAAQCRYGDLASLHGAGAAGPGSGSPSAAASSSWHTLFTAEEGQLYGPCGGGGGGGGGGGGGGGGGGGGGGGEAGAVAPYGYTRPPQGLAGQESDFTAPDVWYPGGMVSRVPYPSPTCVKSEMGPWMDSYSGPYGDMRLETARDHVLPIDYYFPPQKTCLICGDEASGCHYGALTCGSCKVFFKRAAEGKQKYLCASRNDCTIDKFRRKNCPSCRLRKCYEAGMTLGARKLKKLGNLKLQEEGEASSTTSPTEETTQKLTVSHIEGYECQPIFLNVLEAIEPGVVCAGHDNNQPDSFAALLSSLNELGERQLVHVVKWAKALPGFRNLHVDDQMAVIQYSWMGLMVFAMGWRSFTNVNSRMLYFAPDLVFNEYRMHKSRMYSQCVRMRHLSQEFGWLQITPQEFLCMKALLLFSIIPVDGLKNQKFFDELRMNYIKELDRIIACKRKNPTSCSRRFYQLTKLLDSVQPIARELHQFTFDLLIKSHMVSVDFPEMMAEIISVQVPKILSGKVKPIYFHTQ
Method: (§1) Hereinafter, experimental examples to show the effects of the disclosed compounds are described. Unless otherwise described, the following experiments were conducted with conventional materials and methos well known in the an for measuring a similar function.
Experimental Example 2. Anticancer Efficacy Via Degradation of Androgen Receptor

[2] = tested on: androgen-responsive and unresponsive cell; assay: Increase of the autophagy flux in androgen-responsive and unresponsive cell; assay type: cell-based; conditions: FIG. 1; for increase of autophagy at low concentration: 0.01 μM
Method: as §1
Experimental Example 1. Increase of the Autophagy Flux in Androgen-Responsive and Unresponsive Cell by AR Inhibitors of the Present Invention

[3] = tested on: androgen-responsive prostate cancer cell; assay: Colony formation of prostate cancer cell; assay type: cell-based; conditions: FIG. 6
Method: as §1
(§2) Experimental Example 3. Compound B Inhibits Proliferation of Androgen-Responsive Prostate Cancer Cell

[4] = tested on: AR splice variant 7 (AR-V7); assay: Degradation of AR splice variant 7 in enzalutamide resistant cell; assay type: cell-based
Excerpt: (§3) Experimental Example 5. Xtandi-AUTOTAC Degrades AR Splice Variant 7, Predictive Biomarker of Metastatic Castration-Resistant Prostate Cancer Degradation of AR Variant (FIG. 9a to FIG. 9d)

[5] = tested on: AR-V7-expressing 22Rv1 xenograft; assay: Tumor growth in AR-V7-expressing 22Rv1 xenograft model; assay type: in vivo; conditions: SCID mice, intraperitoneally 5 times per week, 20 mg/kg; FIG. 10
Method: 22Rv1 cells (4×10^6 cells/animal) were injected subcutaneously into 10-week-old male SCID mice to generate xenograft. The mice bearing tumor were randomly divided into vehicle or AUTOTAC treatment groups (4 or 5 mice per group), Compound B was injected via intraperitoneally 5 times per week at a dose of 20 mg/kg body weight, whereas the vehicle group received an equal volume of PBS containing 5% DMSO and 10% solutol. (FIG. 10)

LNCaP xenograft tumors = assay: Growth of LNCaP xenograft tumors in mice; assay type: in vivo; conditions: FIG. 8a to 8d
Excerpt: Experimental Example 4. […] Inhibition of Tumor Growth

[6] = tested on: androgen-responsive prostate cancer cell; assay: Cell proliferation / cell cycle of prostate cancer cell; assay type: cell-based; conditions: blocking the cell cycle in G1 phase; FIG. 7
Method: as §1, §2

wild type AR = biological target: T2, wild type AR (Homo sapiens, UniProt P10275); assay: Degradation of wild type AR in enzalutamide resistant cell; assay type: cell-based; conditions: FIG. 9a
T2 construct: endogenous in cells
T2 sequence (P10275 1-920): T1 sequence (P10275 1-920)
Excerpt: as §3

androgen receptor [7] = biological target: T3, androgen receptor (Homo sapiens, UniProt P10275, T878A); assay: Degradation of androgen receptor in tumor of mice; assay type: in vivo; conditions: LNCaP xenograft tumor; FIG. 8e
T3 construct: from tissue; host or cells: LNCaP xenograft tumour in mice
Excerpt: 2. Degradation of Androgen Receptor

AR target genes = assay: Down-regulation of AR signaling pathway: expression of AR target genes; assay type: cell-based; conditions: FIG. 4
Method: as §1
3. Down-Regulation of AR Signaling Pathway

androgen receptor [8] = biological target: T1, androgen receptor; assay: Inactivation of AR: transcriptional activity of androgen receptor; assay type: cell-based; conditions: by forming aggregation with p62 in the cytosol; FIG. 3
Method: as §1

T3 sequence (P10275 whole entry T878A): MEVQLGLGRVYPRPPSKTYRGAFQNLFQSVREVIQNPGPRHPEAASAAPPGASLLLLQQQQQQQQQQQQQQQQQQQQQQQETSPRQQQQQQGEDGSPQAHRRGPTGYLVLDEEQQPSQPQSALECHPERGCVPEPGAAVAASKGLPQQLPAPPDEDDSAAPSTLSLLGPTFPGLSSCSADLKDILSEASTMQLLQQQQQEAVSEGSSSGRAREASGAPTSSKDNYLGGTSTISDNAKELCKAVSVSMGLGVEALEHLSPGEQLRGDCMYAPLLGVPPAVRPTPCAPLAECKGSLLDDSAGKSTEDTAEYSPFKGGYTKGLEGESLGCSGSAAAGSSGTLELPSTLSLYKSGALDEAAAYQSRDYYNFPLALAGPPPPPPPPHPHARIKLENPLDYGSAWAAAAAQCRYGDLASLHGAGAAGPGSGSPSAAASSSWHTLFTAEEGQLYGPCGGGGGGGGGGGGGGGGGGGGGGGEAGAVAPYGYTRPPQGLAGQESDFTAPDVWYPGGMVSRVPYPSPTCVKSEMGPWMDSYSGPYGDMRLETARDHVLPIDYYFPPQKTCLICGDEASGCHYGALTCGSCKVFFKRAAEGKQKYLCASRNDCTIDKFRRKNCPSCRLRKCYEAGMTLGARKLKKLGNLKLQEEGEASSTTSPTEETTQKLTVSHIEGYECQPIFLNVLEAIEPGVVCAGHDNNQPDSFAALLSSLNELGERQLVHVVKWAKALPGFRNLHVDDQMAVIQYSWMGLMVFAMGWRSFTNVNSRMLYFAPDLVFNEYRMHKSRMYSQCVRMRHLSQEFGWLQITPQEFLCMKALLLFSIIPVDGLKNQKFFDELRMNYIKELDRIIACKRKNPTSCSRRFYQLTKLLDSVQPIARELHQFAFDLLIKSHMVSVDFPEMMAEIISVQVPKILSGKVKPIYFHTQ
T3 sequence (Q13501 whole entry partner): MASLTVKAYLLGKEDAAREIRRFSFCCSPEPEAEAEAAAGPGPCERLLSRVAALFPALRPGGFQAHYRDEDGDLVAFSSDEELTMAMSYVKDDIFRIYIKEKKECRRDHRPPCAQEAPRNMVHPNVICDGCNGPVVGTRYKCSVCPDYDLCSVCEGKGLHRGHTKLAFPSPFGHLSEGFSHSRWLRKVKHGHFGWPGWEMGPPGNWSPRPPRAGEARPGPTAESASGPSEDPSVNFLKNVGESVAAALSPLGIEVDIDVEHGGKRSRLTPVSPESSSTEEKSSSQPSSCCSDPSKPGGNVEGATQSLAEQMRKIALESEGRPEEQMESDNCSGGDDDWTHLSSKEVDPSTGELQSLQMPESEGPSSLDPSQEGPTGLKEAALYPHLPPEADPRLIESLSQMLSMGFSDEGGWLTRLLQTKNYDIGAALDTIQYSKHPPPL

Structure (SMILES): CC1(C)C(=O)N(c2ccc(C#N)c(C(F)(F)F)c2)C(=S)N1c1ccc(C(=O)NCCOCCOCCOCCOCCNC[C@@H](O)COc2cccc(OCc3ccc(F)cc3)c2)c(F)c1 [Compound F, (R)-4-(3-(4-cyano-3-(trifluoromethyl)phenyl)-5,5-dimethyl-4-oxo-2-thioxoimidazolidin-1-yl)-2-fluoro-N-(18-(3-((4-fluorobenzyl)oxy)phenoxy)-17-hydroxy-3,6,9,12-tetraoxa-15-azaoctadecyl)benzamide]
- degradation of androgen receptor through autophagy (androgen receptor [1]): efficiently degrade androgen receptor

- degradation of androgen receptor through autophagy (androgen receptor [1]): efficiently degrade androgen receptor
Structure (SMILES): O=C(COCCOCCOCCOCCNC[C@@H](O)COc1ccc(OCc2ccc(F)cc2)c(OCc2ccc(F)cc2)c1)N1CCN(c2nc(-n3cc(Br)nc3Br)cs2)CC1 [Compound E, (R)-18-(3,4-bis((4-fluorobenzyl)oxy)phenoxy)-1-(4-(4-(2,4-dibromo-1H-imidazol-1-yl)thiazol-2-yl)piperazin-1-yl)-17-hydroxy-3,6,9,12-tetraoxa-15-azaoctadecan-1-one]

Structure (SMILES): CC1(C)C(=O)N(c2ccc(C#N)c(C(F)(F)F)c2)C(=S)N1c1ccc(C(=O)NCCCCCCOCCCCCNC[C@@H](O)COc2cccc(OCc3ccc(F)cc3)c2)c(F)c1 [Compound G, (R)-4-(3-(4-cyano-3-(trifluoromethyl)phenyl)-5,5-dimethyl-4-oxo-2-thioxoimidazolidin-1-yl)-2-fluoro-N-(6-((5-((3-(3-((4-fluorobenzyl)oxy)phenoxy)-2-hydroxypropyl)amino)pentyl)oxy)hexyl)benzamide]
- degradation of androgen receptor through autophagy (androgen receptor [1]): efficiently degrade androgen receptor

- degradation of androgen receptor through autophagy (androgen receptor [1]): efficiently degrade androgen receptor
Structure (SMILES): O[C@H](CNCCOCCOCCOCCOCCN1CCN(c2nc(-n3cc(Br)nc3Br)cs2)CC1)COc1ccc(OCc2ccc(F)cc2)c(OCc2ccc(F)cc2)c1 [Compound D, (R)-18-(3,4-bis((4-fluorobenzyl)oxy)phenoxy)-1-(4-(4-(2,4-dibromo-1H-imidazol-1-yl)thiazol-2-yl)piperazin-1-yl)-3,6,9,12-tetraoxa-15-azaoctadecan-17-ol]

Structure (SMILES): CC1(C)C(=O)N(c2ccc(C#N)c(C(F)(F)F)c2)C(=S)N1c1ccc(OCCOCCOCCOCCOCCOCCNCc2cccc(OCc3ccc(F)cc3)c2)cc1 [Compound I, 4-(3-(4-((1-(3-((4-fluorobenzyl)oxy)phenyl)-5,8,11,14,17-pentaoxa-2-azanonadecan-19-yl)oxy)phenyl)-4,4-dimethyl-5-oxo-2-thioxoimidazolidin-1-yl)-2-(trifluoromethyl)benzonitrile]
- degradation of androgen receptor through autophagy (androgen receptor [1]): efficiently degrade androgen receptor

Structure (SMILES): CC1(C)C(=O)N(c2ccc(C#N)c(C(F)(F)F)c2)C(=S)N1c1ccc(C(=O)NCCOCCOCCOCCOCCOCCOCCNC[C@@H](O)COc2ccc(OCc3ccc(F)cc3)c(OCc3ccc(F)cc3)c2)c(F)c1 [Compound C, (R)-N-(24-(3,4-bis((4-fluorobenzyl)oxy)phenoxy)-23-hydroxy-3,6,9,12,15,18-hexaoxa-21-azatetracosyl)-4-(3-(4-cyano-3-(trifluoromethyl)phenyl)-5,5-dimethyl-4-oxo-2-thioxoimidazolidin-1-yl)-2-fluorobenzamide]
- degradation of androgen receptor through autophagy (androgen receptor [1]): efficiently degrade androgen receptor
- increase of autophagy at low concentration [2]: efficiently increase autophagy

Structure (SMILES): CC1(C)C(=O)N(c2ccc(C#N)c(C(F)(F)F)c2)C(=S)N1c1ccc(C(=O)NCCOCCOCCNC[C@@H](O)COc2ccc(OCc3ccc(F)cc3)c(OCc3ccc(F)cc3)c2)c(F)c1 [Compound A, (R)—N-(2-(2-(2-((3-(3,4-bis((4-fluorobenzyl)oxy)phenoxy)-2-hydroxypropyl)amino)ethoxy)ethoxy)ethyl)-4-(3-(4-cyano-3-(trifluoromethyl)phenyl)-5,5-dimethyl-4-oxo-2-thioxoimidazolidin-1-yl)-2-fluorobenzamide]
- degradation of androgen receptor through autophagy (androgen receptor [1]): efficiently degrade androgen receptor
- increase of autophagy at low concentration [2]: efficiently increase autophagy

Structure (SMILES): CC1(C)C(=O)N(c2ccc(C#N)c(C(F)(F)F)c2)C(=S)N1c1ccc(OCCCCCCCC(=O)NCCOCCOCCNCc2cccc(OCc3ccc(F)cc3)c2)cc1 [Compound H, 8-(4-(3-(4-cyano-3-(trifluoromethyl)phenyl)-5,5-dimethyl-4-oxo-2-thioxoimidazolidin-1-yl)phenoxy)-N-(2-(2-(2-((3-((4-fluorobenzyl)oxy)benzyl)amino)ethoxy)ethoxy)ethyl)octanamide]
- degradation of androgen receptor through autophagy (androgen receptor [1]): efficiently degrade androgen receptor

Structure (SMILES): CC1(C)C(=O)N(c2ccc(C#N)c(C(F)(F)F)c2)C(=S)N1c1ccc(C(=O)NCCOCCOCCOCCOCCNC[C@@H](O)COc2ccc(OCc3ccc(F)cc3)c(OCc3ccc(F)cc3)c2)c(F)c1 [Compound B, (R)—N-(18-(3,4-bis((4-fluorobenzyl)oxy)phenoxy)-17-hydroxy-3,6,9,12-tetraoxa-15-azaoctadecyl)-4-(3-(4-cyano-3-(trifluoromethyl)phenyl)-5,5-dimethyl-4-oxo-2-thioxoimidazolidin-1-yl)-2-fluorobenzamide]
- colony formation of prostate cancer cell [3]: prevents colony formation
- degradation of AR-V7 by sequestering with wild type AR ([4]; FIG. 9a to 9d): can degrade AR-V7 by sequestering with wild type AR
- degradation of AR-V7 ([4]; enzalutamide resistant cell, FIG. 9a): degrades
- tumor growth in AR-V7-expressing 22Rv1 xenograft model [5]: Inhibits Tumor Growth
- degradation of androgen receptor through autophagy (androgen receptor [1]): efficiently degrade androgen receptor
- tumor growth in Xenograft mouse model (LNCaP xenograft tumors): efficiently inhibits tumor growth
- increase of autophagy at low concentration [2]: efficiently increase autophagy
- increase of autophagy at early time point ([2]; 1 h): efficiently increases autophagy
- cell proliferation / cell cycle [6]: inhibits cell proliferation by blocking the cell cycle in G1 phase
- degradation of wild type AR (wild type AR): degrades
- degradation of androgen receptor in tumor of mice (androgen receptor [7]): degrades androgen receptor
- expression of AR target genes (AR target genes): down-regulates expression of AR target genes
- transcriptional activity of androgen receptor (androgen receptor [8]): inhibits transcriptional activity of androgen receptor

— patent US20260159485A1, “ANDROGEN RECEPTOR DEGRADERS FOR THE TREATMENT OF CASTRATION-RESISTANT PROSTATE CANCER AND USE THEREOF” (AUTOTAC INC., priority 2021, published 2026)
